# According to US20170268001A1, “RNAS WITH TUMOR RADIO/CHEMO-SENSITIZING AND IMMUNOMODULATORY PROPERTIES AND METHODS OF THEIR PREPARATION AND APPLICATION” (THE UNIVERSITY OF CHICAGO, priority 2016, published 2017):
# T1: RIG-I (Homo sapiens, UniProt O95786)
# T1 construct: HEK293 cells overexpressing either the full length RIG-I; host or cells: HEK293; HCT116 also for the qRT-PCR validation
# T1 sequence (O95786 1-925): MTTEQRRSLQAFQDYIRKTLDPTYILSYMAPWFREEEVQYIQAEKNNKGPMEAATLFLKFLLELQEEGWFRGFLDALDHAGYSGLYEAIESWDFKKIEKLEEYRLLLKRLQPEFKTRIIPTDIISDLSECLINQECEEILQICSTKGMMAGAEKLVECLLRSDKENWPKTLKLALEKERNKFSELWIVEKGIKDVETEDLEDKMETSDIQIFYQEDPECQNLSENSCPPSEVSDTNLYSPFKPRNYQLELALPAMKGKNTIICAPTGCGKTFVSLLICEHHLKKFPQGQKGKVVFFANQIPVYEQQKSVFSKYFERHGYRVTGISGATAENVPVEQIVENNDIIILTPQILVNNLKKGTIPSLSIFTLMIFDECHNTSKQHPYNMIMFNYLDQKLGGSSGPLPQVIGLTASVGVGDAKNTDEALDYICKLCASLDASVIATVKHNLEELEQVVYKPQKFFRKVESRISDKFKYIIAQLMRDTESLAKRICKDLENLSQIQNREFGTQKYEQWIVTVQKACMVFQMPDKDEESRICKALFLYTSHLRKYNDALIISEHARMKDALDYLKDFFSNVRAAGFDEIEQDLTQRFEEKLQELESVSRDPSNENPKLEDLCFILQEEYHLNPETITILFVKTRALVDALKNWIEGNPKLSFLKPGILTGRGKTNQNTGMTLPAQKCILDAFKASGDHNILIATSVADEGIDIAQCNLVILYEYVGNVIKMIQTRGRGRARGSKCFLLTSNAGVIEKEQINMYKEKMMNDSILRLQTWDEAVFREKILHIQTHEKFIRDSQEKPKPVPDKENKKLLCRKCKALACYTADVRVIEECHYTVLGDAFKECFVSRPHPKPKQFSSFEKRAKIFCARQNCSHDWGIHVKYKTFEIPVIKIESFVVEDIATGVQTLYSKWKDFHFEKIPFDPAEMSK
# B1: M5: rbRNA, RIG-I agonist, 81 nucleotides, SEQ ID NO:26 (nucleic acid)
# chain: GACGAAGACCACAAAACCAGATAAAAAATTATTTTTTATCTGGTTTTGTGGTCTTCGTCTATAGTGAGTCGTATTAATTTC
# modifications: listed as DNA, chemistry not given here
# Molecular target: T1, RIG-I
# Test: UV cross-linking with quantitative real-time PCR (CLIP-PCR) of RIG-I complexes
# Type: binding
# Protocol: Graphic representation indicating the distribution of non-coding and repetitive RNA molecules bound to RIG-I following exposure to IR as compared to total irradiated cellular RNA. Transcripts were mapped to reference genomes using RepeatMasker. See Methods for further details. […] Cells were UV crosslinked at 150 mJ/cm^2 48 hours post-IR treatment prior to cell lysis. […] FIG. 29H show IFN-b levels in culture supernatant from ICR RIG-I^+/+ and primary MEFs 24 hours post-stimulation with the same set of synthetic U1 oligonucleotides used in (FIG. 29G) The amount of U1 synthetic oligonucleotides used in all stimulation experiments was 1 μg. P values were determined using unpaired Student's t-test. Error bars are SEM. ***P<0.005.
# Technically, identification of RNAs was performed as follows: HEK293 cells were transiently transfected with 3×FLAG-tagged full-size RIG-I in pEF-BOS vector (Addgene; Cambridge, Mass.). Twenty-four hours post-transfection, cells were either mock-irradiated or exposed to IR (6 Gy). Forty-eight hours post-IR, cells were lysed with a modified lysis buffer (50 mM Tris-Cl pH 7.5, 0.15 M NaCl, 0.1% NP-40, 1.0% Triton X-100, 1 mM EDTA pH8.0, 1 mM EGTA pH8.0, 10% Glycerol, 2.5 mM MgCl2, 1 mM DTT, 0.1 mM ATP, and 1× Halt Protease Inhibitor) and incubated on ice for 1 hour. Cell lysates were separated from cell debris by centrifugation at 12,000 rpm at 4° C. Protein concentration was measured by BCA kit. Anti-FLAG monoclonal antibody was added to the cell lysate at a 1:500 dilution, and incubated overnight at 4° C. Protein G sepharose beads were added to the lysates and incubated for at least 2 hours at 4° C. Beads containing the antibody-RIG-I complexes were washed five times in wash buffer (50 mM Tris-Cl pH 7.5, 0.15 M NaCl, 1 mM MgCl2, 0.05% NP-40, 1 mM DTT) and proteins were eluted from the beads using a soft elution buffer (0.5% SDS, 0.1% Tween-20, 50 mM Tris pH 8.0) for 10 minutes at room temperature with vortexing every 2-3 minutes. Proteinase K was added to the eluates and incubated at 50° C. for 45 minutes. Trizol reagent was then added to the solution, and RNA bound to RIG-I was purified following manufacturer's protocol. RNA quality was analyzed using an Agilent Bioanalyzer 2100 with Pico Series II cartridges. RNA yield was measured using the Qubit RNA Broad Range kit. For qRT-PCR validation experiments of RIG-I pulled down RNA, UV cross-linking (2 doses at 150 mJ/cm^2) was performed on HEK293 and HCT116 overexpressing RIG-I prior to cell lysis. The same protocol for pulldown and RNA purification experiments was performed as described above.
Molecule,enrichment in RIG-I: RNA complexes in irradiated samples (HCT116 cells overexpressing RIG-I),"enrichment in purified RIG-I complexes, irradiated vs non-irradiated (HEK293 expressing WT RIG-I, IR 6 Gy)",binding to RIG-I (RIG-I: RNA complexes isolated from HCT116 cells overexpressing RIG-I)
"U2: snRNA, SEQ ID NO:21",significant enrichment,6 fold,–
B1,–,–,binds
